# In PubChem BioAssay AID1963870 (Molecular Pharmacology Branch, DTP, NCI, 2024):
# Tested on: 292921-168-R-J2-PDC KRAS tumor spheroid viability
# Test: Anticancer human tumor 292921-168-R-J2-PDC patient-derived pancreatic carcinoma cell line growth inhibition [KRAS2]
# Conditions: spheroids with HUVEC and MSC; for viability, T/C: stronger effect = lower value
# Outline: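 Combination screen of spheroid viability in tumor-cell co-cultures with endothelial (HUVEC) and mesenchymal stem cell stroma. Each agent was tested in half-log dilutions, topping at clinical Cmax or at 10 microM without a known Cmax.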
# [1] = curve of first compound, second compound 0.1 µM
# [2] = curve of first compound, second compound 0.316 µM
# [3] = curve of first compound, second compound 1 µM
# [4] = curve of first compound, second compound 3.16 µM
# [5] = curve of first compound, second compound 10 µM
# [6] = second compound 0.1 µM, first compound 0.01 µM
# [7] = second compound 0.1 µM, first compound 0.0316 µM
# [8] = second compound 0.1 µM, first compound 0.1 µM
# [9] = second compound 0.1 µM, first compound 0.316 µM
# [10] = second compound 0.1 µM, first compound 1 µM
# [11] = second compound 0.1 µM, first compound 3.16 µM
# [12] = second compound 0.316 µM, first compound 0.01 µM
# [13] = second compound 0.316 µM, first compound 0.0316 µM
# [14] = second compound 0.316 µM, first compound 0.1 µM
# [15] = second compound 0.316 µM, first compound 0.316 µM
# [16] = second compound 0.316 µM, first compound 1 µM
# [17] = second compound 0.316 µM, first compound 3.16 µM
# [18] = second compound 1 µM, first compound 0.01 µM
# [19] = second compound 1 µM, first compound 0.0316 µM
# [20] = second compound 1 µM, first compound 0.1 µM
# [21] = second compound 1 µM, first compound 0.316 µM
# [22] = second compound 1 µM, first compound 1 µM
# [23] = second compound 1 µM, first compound 3.16 µM
# [24] = second compound 3.16 µM, first compound 0.01 µM
# [25] = second compound 3.16 µM, first compound 0.0316 µM
# [26] = second compound 3.16 µM, first compound 0.1 µM
# [27] = second compound 3.16 µM, first compound 0.316 µM
# [28] = second compound 3.16 µM, first compound 1 µM
# [29] = second compound 3.16 µM, first compound 3.16 µM
# [30] = second compound 10 µM, first compound 0.01 µM
# [31] = second compound 10 µM, first compound 0.0316 µM
# [32] = second compound 10 µM, first compound 0.1 µM
# [33] = second compound 10 µM, first compound 0.316 µM
# [34] = second compound 10 µM, first compound 1 µM
# [35] = second compound 10 µM, first compound 3.16 µM
# [36] = second compound 0.1 µM, first compound 10 µM
# [37] = second compound 0.316 µM, first compound 10 µM
# [38] = second compound 1 µM, first compound 10 µM
# [39] = second compound 3.16 µM, first compound 10 µM
# 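Also: drug exposure lasted seven days after spheroids formed for three days.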
# 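For viability, T/C in this document: percent of DMSO vehicle control viability which is 100%.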
compound,measurement,setting,value
CC1COCCN1c1cc(-c2ccnn2C)c2ccnc(-c3ccn[nH]3)c2n1 (stereo unspecified) + COc1cc2nc(C)nc(NC(C)c3cc(N)cc(C(F)(F)F)c3)c2cc1OC1CCOC1,IC50,[1],< 10 nM
same,IC50,[2],< 10 nM
same,IC50,[3],< 10 nM
same,IC50,[4],< 10 nM
same,IC50,[5],< 10 nM
same,"viability, T/C",[6],30.3%
same,"viability, T/C",[7],14.4%
same,"viability, T/C",[8],11.1%
same,"viability, T/C",[9],10.6%
same,"viability, T/C",[10],12.1%
same,"viability, T/C",[11],14.1%
same,"viability, T/C",[12],25.2%
same,"viability, T/C",[13],12.9%
same,"viability, T/C",[14],10.1%
same,"viability, T/C",[15],9.13%
same,"viability, T/C",[16],10.8%
same,"viability, T/C",[17],12.5%
same,"viability, T/C",[18],25.6%
same,"viability, T/C",[19],11.6%
same,"viability, T/C",[20],9.3%
same,"viability, T/C",[21],8.99%
same,"viability, T/C",[22],11.2%
same,"viability, T/C",[23],13.2%
same,"viability, T/C",[24],19.4%
same,"viability, T/C",[25],12.1%
same,"viability, T/C",[26],9.36%
same,"viability, T/C",[27],8.32%
same,"viability, T/C",[28],10.4%
same,"viability, T/C",[29],11.8%
same,"viability, T/C",[30],12.9%
same,"viability, T/C",[31],12.5%
same,"viability, T/C",[32],9.42%
same,"viability, T/C",[33],8.21%
same,"viability, T/C",[34],8.78%
same,"viability, T/C",[35],7.99%
O=C(c1cc(Cc2n[nH]c(=O)c3ccccc23)ccc1F)N1CCN(C(=O)C2CC2)CC1 + C=CC(=O)N1CCN(c2nc(=O)n(-c3c(C)ccnc3C(C)C)c3nc(-c4c(O)cccc4F)c(F)cc23)C(C)C1,IC50,[1],7630 nM
same,IC50,[2],8380 nM
same,IC50,[3],6670 nM
same,IC50,[4],1020 nM
same,IC50,[5],< 31.6 nM
same,"viability, T/C",[7],97.8%
same,"viability, T/C",[8],87%
same,"viability, T/C",[9],88%
same,"viability, T/C",[10],84.1%
same,"viability, T/C",[11],76.8%
same,"viability, T/C",[36],41.9%
same,"viability, T/C",[13],90.8%
same,"viability, T/C",[14],82.1%
same,"viability, T/C",[15],79.4%
same,"viability, T/C",[16],85.9%
same,"viability, T/C",[17],75.7%
same,"viability, T/C",[37],45.1%
same,"viability, T/C",[19],77%
same,"viability, T/C",[20],72.3%
same,"viability, T/C",[21],76.2%
same,"viability, T/C",[22],84.2%
same,"viability, T/C",[23],62.1%
same,"viability, T/C",[38],41%
same,"viability, T/C",[25],64%
same,"viability, T/C",[26],59.5%
same,"viability, T/C",[27],56.7%
same,"viability, T/C",[28],47.5%
same,"viability, T/C",[29],46.7%
same,"viability, T/C",[39],38.2%
same,"viability, T/C",[31],27.3%
same,"viability, T/C",[32],25.9%
same,"viability, T/C",[33],28.2%
same,"viability, T/C",[34],28.9%
same,"viability, T/C",[35],32%
same,"viability, T/C","second compound 10 µM, first compound 10 µM",29.1%
Cn1ncnc1[C@H]1c2n[nH]c(=O)c3cc(F)cc(c23)N[C@@H]1c1ccc(F)cc1 + CNCc1ccccc1-c1csc(C(C)Nc2nc(C)nc3cc(OC)c(OC)cc23)c1,IC50,[1],> 100 nM
same,IC50,[2],> 100 nM
same,IC50,[3],24 nM
same,IC50,[4],< 0.316 nM
same,IC50,[5],< 0.316 nM
same,"viability, T/C","second compound 0.1 µM, first compound 0.000316 µM",87.7%
same,"viability, T/C","second compound 0.1 µM, first compound 0.001 µM",87.8%
same,"viability, T/C","second compound 0.1 µM, first compound 0.00316 µM",84.2%
same,"viability, T/C",[6],81.3%
same,"viability, T/C",[7],75.9%
same,"viability, T/C",[8],63.5%
same,"viability, T/C","second compound 0.316 µM, first compound 0.000316 µM",77.3%
same,"viability, T/C","second compound 0.316 µM, first compound 0.001 µM",84.3%
same,"viability, T/C","second compound 0.316 µM, first compound 0.00316 µM",79.9%
same,"viability, T/C",[12],69.2%
same,"viability, T/C",[13],65.5%
same,"viability, T/C",[14],56.9%
same,"viability, T/C","second compound 1 µM, first compound 0.000316 µM",57.3%
same,"viability, T/C","second compound 1 µM, first compound 0.001 µM",55.7%
same,"viability, T/C","second compound 1 µM, first compound 0.00316 µM",57.6%
same,"viability, T/C",[18],52.6%
same,"viability, T/C",[19],48.6%
same,"viability, T/C",[20],41.4%
same,"viability, T/C","second compound 3.16 µM, first compound 0.000316 µM",0.07%
same,"viability, T/C","second compound 3.16 µM, first compound 0.001 µM",0.08%
same,"viability, T/C","second compound 3.16 µM, first compound 0.00316 µM",0.08%
same,"viability, T/C",[24],0.07%
same,"viability, T/C",[25],0.08%
same,"viability, T/C",[26],0.13%
same,"viability, T/C","second compound 10 µM, first compound 0.000316 µM",0.08%
same,"viability, T/C","second compound 10 µM, first compound 0.001 µM",0.08%
same,"viability, T/C","second compound 10 µM, first compound 0.00316 µM",0.48%
same,"viability, T/C",[30],0.87%
same,"viability, T/C",[31],0.35%
same,"viability, T/C",[32],0.15%
COc1cc2nccc(Oc3ccc(NC(=O)C4(C(=O)Nc5ccc(F)cc5)CC4)cc3)c2cc1OC + C=CC(=O)N1CCN(c2nc(OCC3CCCN3C)nc3c2CCN(c2cccc4cccc(C)c24)C3)CC1CC#N,IC50,"curve of first compound, second compound 0.0316 µM",2060 nM
same,IC50,[1],1710 nM
same,IC50,[2],1310 nM
same,IC50,[3],< 31.6 nM
same,IC50,[4],< 31.6 nM
same,"viability, T/C","second compound 0.0316 µM, first compound 0.0316 µM",100%
same,"viability, T/C","second compound 0.0316 µM, first compound 0.1 µM",90.4%
same,"viability, T/C","second compound 0.0316 µM, first compound 0.316 µM",94.2%
same,"viability, T/C","second compound 0.0316 µM, first compound 1 µM",77.1%
same,"viability, T/C","second compound 0.0316 µM, first compound 3.16 µM",33.9%
same,"viability, T/C","second compound 0.0316 µM, first compound 10 µM",15.6%
same,"viability, T/C",[7],89.8%
same,"viability, T/C",[8],83.9%
same,"viability, T/C",[9],84.4%
same,"viability, T/C",[10],62.5%
same,"viability, T/C",[11],35.1%
same,"viability, T/C",[36],20.6%
same,"viability, T/C",[13],82%
same,"viability, T/C",[14],83.2%
same,"viability, T/C",[15],82.4%
same,"viability, T/C",[16],55.5%
same,"viability, T/C",[17],29.2%
same,"viability, T/C",[37],18.4%
same,"viability, T/C",[19],45.6%
same,"viability, T/C",[20],39%
same,"viability, T/C",[21],38.2%
same,"viability, T/C",[22],22.9%
same,"viability, T/C",[23],14.7%
same,"viability, T/C",[38],9.84%
same,"viability, T/C",[25],0.34%
same,"viability, T/C",[26],0.83%
same,"viability, T/C",[27],0.26%
same,"viability, T/C",[28],0.12%
same,"viability, T/C",[29],0.1%
same,"viability, T/C",[39],0.15%
COc1cc(Nc2ncc3c(n2)-c2ccc(Cl)cc2C(c2c(F)cccc2OC)=NC3)ccc1C(=O)O,"viability, T/C",compound 0.0316 µM,30.3% [middle of 5 runs]
same,"viability, T/C",compound 0.1 µM,28% [middle of 5 runs]
same,"viability, T/C",compound 0.316 µM,30.6% [middle of 5 runs]
same,"viability, T/C",compound 1 µM,28.6% [middle of 5 runs]
same,"viability, T/C",compound 3.16 µM,23.7% [middle of 5 runs]
same,"viability, T/C",compound 10 µM,17.8% [middle of 5 runs]
same,IC50,curve of compound,< 31.6 nM
CNCc1ccccc1-c1csc(C(C)Nc2nc(C)nc3cc(OC)c(OC)cc23)c1 (stereo unspecified),"viability, T/C",compound 0.316 µM,88.7% [middle of 16 runs]
same,"viability, T/C",compound 10 µM,0.15% [middle of 14 runs]
same,IC50,"compound alone, run of 08/26/2021",1.28 µM [middle of 5 runs]
same,IC50,"compound alone, run of 09/02/2021",1.34 µM [middle of 5 runs]
